Measured values: patent US11390631B1, “Benzodiazepine derivatives as RSV inhibitors” (priority 2015, dated 2022)

test system: Human RSV-A (“Long” strain); assay: RSV-A assay: inhibition of cytopathic effect in Hep-2 cells, ATPlite readout; assay type: cell-based, Human respiratory syncytial virus (HRSV); conditions: Hep-2 cells, MOI 0.1, 5-day incubation, ATPlite; read-out: Human RSV-A (“Long” strain) EC50
Procedure, shortened: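 Hep-2 cells (8,000/well) were infected with RSV-A Long at MOI 0.1 alongside duplicate 2-fold compound dilutions. After 5 days, cell viability was read by ATPlite luminescence to give EC50. CC50 came from a parallel plate without virus.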

SMILES | EC50 [µM]
O=C1Nc2ccccc2C(c2ccccc2)=N[C@@H]1Nc1nnc(-c2ncc(C(F)(F)F)cc2N[C@H]2CC[C@H]2O)o1 [Example 417] | > 0.8
O=C1Nc2ccccc2C(c2ccccc2)=N[C@@H]1Nc1nnc(-c2ncc(C(F)(F)F)cc2N[C@@H]2CC[C@@H]2O)o1 [Example 418] | > 0.8
O=C1Nc2ccccc2C(c2ccccc2)=N[C@@H]1Nc1ncc(-c2ncc(C(F)(F)F)cc2N2CCOCC2)o1 [Example 442] | < 0.4
O=C1Nc2ccccc2C(c2ccccc2)=N[C@@H]1Nc1nnc(-c2cn(-c3ccc(C(F)(F)F)nc3)nc2N2CCOCC2)o1 [Example 444] | < 0.4
O=C1Nc2ccccc2C(c2ccccc2)=N[C@@H]1Nc1nnc(-c2cn(CC3CC3)nc2N2CCOCC2)o1 [Example 446] | < 0.4
O=C1Nc2ccccc2C(c2ccccc2)=N[C@H]1Nc1nnc(-c2cn(CC3CC3)nc2N2CCOCC2)o1 [Example 447] | 0.4 to 0.8

same assay, conditions: human respiratory syncytial virus, HEp-2, 120 h, read-out: Human RSV-A (“Long” strain) EC50

SMILES | EC50 [µM]
COCC1(Nc2cc(C(F)(F)F)cnc2-c2nnc(N[C@H]3N=C(c4ccccc4)c4ccccc4NC3=O)o2)CC1 [Example 415] | > 0.8
COC(C)(C)CNc1cc(C(F)(F)F)cnc1-c1nnc(N[C@H]2N=C(c3ccccc3)c3ccccc3NC2=O)o1 [Example 416] | > 0.8
O=C1Nc2ccccc2C(c2ccccc2)=N[C@@H]1Nc1nnc(-c2ncc(C(F)(F)F)cc2NC[C@@H]2CCCO2)o1 [Example 419] | 0.4 to 0.8
O=C1Nc2ccccc2C(c2ccccc2)=N[C@@H]1Nc1nnc(-c2ncc(C(F)(F)F)cc2NC[C@H]2CCCO2)o1 [Example 420] | < 0.4
O=C1Nc2ccccc2C(c2ccccc2)=N[C@@H]1Nc1nnc(-c2ncc(C(F)(F)F)cc2NCc2ccco2)o1 [Example 421] | > 0.8
O=C1Nc2ccccc2C(c2ccccc2)=N[C@@H]1Nc1nnc(-c2ncc(C(F)(F)F)cc2N[C@H]2CCC[C@H]2O)o1 [Example 422] | 0.4 to 0.8
O=C1Nc2ccccc2C(c2ccccc2)=N[C@@H]1Nc1nnc(-c2ncc(C(F)(F)F)cc2N[C@@H]2CCC[C@@H]2O)o1 [Example 423] | 0.4 to 0.8
CC1(Nc2cc(C(F)(F)F)cnc2-c2nnc(N[C@H]3N=C(c4ccccc4)c4ccccc4NC3=O)o2)CCOC1 (stereo partly shown) [Example 424] | > 0.8
O=C1Nc2ccccc2C(c2ccccc2)=N[C@@H]1Nc1nnc(-c2cn(-c3cccnc3)nc2N2CCOCC2)o1 [Example 425] | < 0.4
COCCn1ccc2cccc(-c3nnc(N[C@H]4N=C(c5ccccc5)c5ccccc5NC4=O)o3)c21 [Example 426] | > 0.8
O=C1Nc2ccccc2C(c2ccccc2)=N[C@@H]1Nc1nnc(-c2nc(-c3ccccc3F)sc2N2CCOCC2)o1 [Example 427] | < 0.4
O=C1Nc2ccccc2C(c2ccccc2)=N[C@@H]1Nc1nnc(-c2nc(-c3ccc(F)cc3)sc2N2CCOCC2)o1 [Example 428] | < 0.4
O=C1Nc2ccccc2C(c2ccccc2)=N[C@@H]1Nc1nnc(-c2cn(C3CCC3)nc2N2CCOCC2)o1 [Example 430] | < 0.4
O=C1Nc2ccccc2C(c2ccccc2)=N[C@@H]1Nc1nnc(-c2cn(-c3ccccn3)nc2N2CCOCC2)o1 [Example 431] | < 0.4
Cc1cc(-c2nnc(N[C@H]3N=C(c4ccccc4)c4ccccc4NC3=O)o2)n(C2CCOCC2)n1 [Example 432] | > 0.8
O=C1Nc2ccccc2C(c2ccccc2)=N[C@@H]1Nc1nnc(-c2nc3ccccc3nc2N2CCOCC2)o1 [Example 433] | < 0.4
O=C1Nc2ccccc2C(c2ccccc2)=N[C@@H]1Nc1nnc(-c2cc3ccccc3nc2N2CCOCC2)o1 [Example 434] | < 0.4
N#Cc1ccc2nccc(-c3nnc(N[C@H]4N=C(c5ccccc5)c5ccccc5NC4=O)o3)c2c1 [Example 435] | > 0.8
CO[C@@H]1COC[C@H]1Nc1cc(C(F)(F)F)cnc1-c1nnc(N[C@H]2N=C(c3ccccc3)c3ccccc3NC2=O)o1 [Example 436] | < 0.4
CC(C)(O)c1nc(-c2nnc(N[C@H]3N=C(c4ccccc4)c4ccccc4NC3=O)o2)c(N2CCOCC2)s1 [Example 437] | < 0.4
COCCN1CCCn2ncc(-c3nnc(N[C@H]4N=C(c5ccccc5)c5ccccc5NC4=O)o3)c21 [Example 438] | 0.4 to 0.8
COC1C2CN(c3cc(C(F)(F)F)cnc3-c3nnc(N[C@H]4N=C(c5ccccc5)c5ccccc5NC4=O)o3)CC21 (stereo partly shown) [Example 439] | > 0.8

SMILES | EC50 [µM]
O=C1Nc2ccccc2C(c2ccccc2)=N[C@@H]1Nc1nnc(-c2cn(-c3ccc(C(F)(F)F)cn3)nc2N2CCOCC2)o1 [Example 440] | 0.4 to 0.8
N#Cc1ccn2ncc(-c3nnc(N[C@H]4N=C(c5ccccc5)c5ccccc5NC4=O)o3)c2c1 [Example 441] | > 0.8
O=C1Nc2ccccc2C(c2ccccc2)=NC1Nc1nnc(-c2cn(-c3ccc(F)cn3)nc2N2CCOCC2)o1 (stereo not shown) [Example 448] | < 0.4
COCc1ccn2ncc(-c3nnc(N[C@H]4N=C(c5ccccc5)c5ccccc5NC4=O)o3)c2c1 [Example 449] | > 0.8
O=C1Nc2ccccc2C(c2ccccc2)=NC1Nc1nnc(-c2ncc(C(F)(F)F)cc2CCO)o1 (stereo not shown) [Example 450] | > 0.8
COC[C@@H](C)Nc1sc(C(F)(F)F)nc1-c1nnc(N[C@H]2N=C(c3ccccc3)c3ccccc3NC2=O)o1 [Example 451] | 0.4 to 0.8
CO[C@@H](C)CNc1sc(C(F)(F)F)nc1-c1nnc(N[C@H]2N=C(c3ccccc3)c3ccccc3NC2=O)o1 [Example 452] | < 0.4
O=C1Nc2ccccc2C(c2ccccc2)=N[C@@H]1Nc1nnc(-c2nc(C(F)(F)F)sc2C2=CCOCC2)o1 [Example 453] | < 0.4
O=C1Nc2ccccc2C(c2ccccc2)=N[C@@H]1Nc1nnc(-c2nc(C(F)(F)C(F)(F)F)sc2N2CCOCC2)o1 [Example 454] | < 0.4
O=C1Nc2ccccc2C(c2ccccc2)=N[C@@H]1Nc1nnc(-c2nc(C3(O)CCC3)sc2N2CCOCC2)o1 [Example 455] | < 0.4
COC[C@H]1CCCN1c1sc(C(F)(F)F)nc1-c1nnc(N[C@H]2N=C(c3ccccc3)c3ccccc3NC2=O)o1 [Example 456] | > 0.8
COC[C@@H]1CCCN1c1sc(C(F)(F)F)nc1-c1nnc(N[C@H]2N=C(c3ccccc3)c3ccccc3NC2=O)o1 [Example 457] | > 0.8
CCOC1(c2nc(-c3nnc(N[C@H]4N=C(c5ccccc5)c5ccccc5NC4=O)o3)c(N3CCOCC3)s2)CCC1 [Example 458] | < 0.4
CC(C)(c1nc(-c2nnc(N[C@H]3N=C(c4ccccc4)c4ccccc4NC3=O)o2)c(N2CCOCC2)s1)N1CCOCC1 [Example 459] | < 0.4
O=C1Nc2ccccc2C(c2ccccc2)=N[C@@H]1Nc1nnc(-c2ncc(C(F)F)cc2N2CCOCC2)o1 [Example 461] | < 0.4
O=C1Nc2ccccc2C(c2ccccc2)=N[C@@H]1Nc1cc(-c2ccccc2)cnn1 [Example 462] | > 0.8
O=C1Nc2ccccc2C(c2ccccc2)=NC1Nc1cc(N2CCOCC2)cnn1 (stereo not shown) [Example 463] | > 0.8
O=C1Nc2ccccc2C(c2ccccc2)=N[C@@H]1Nc1nnc(-c2ncc(C(F)(F)F)cc2N[C@@H]2CCOC2)o1 [Example 464] | < 0.4
Cc1nsc(N2CCOCC2)c1-c1nnc(N[C@H]2N=C(c3ccccc3)c3ccccc3NC2=O)o1 [Example 465] | 0.4 to 0.8
O=C1Nc2ccccc2C(c2ccccc2)=N[C@@H]1Nc1nnc(-c2ncc(C(F)(F)F)cc2N2CCOc3ccccc32)o1 [Example 468] | > 0.8
O=C1Nc2ccccc2C(c2ccccc2)=N[C@@H]1Nc1nnc(-c2ncc(C(F)(F)F)cc2NC2COC2)o1 [Example 469] | < 0.4
